In series [1] the test system is ptosis induced by reserpine. The experiment in a line: Antagonism of the ptosis induced by reserpine. The class given is in vivo, female CD1 mice. Conditions: Mus musculus, ip; mice, intraperitoneal; reserpine 2 mg/kg i.v. simultaneously; read at 1 hour; read-out: ED50 (dose which completely blocks the ptosis induced by reserpine in 50% of the animals). The method, then: This test, described by GOURET et al. (Journal de Pharmacologie, Paris, 8, 333-350, 1977), was performed on female CD1 mice (Charles River) weighing 20±1 g. Reserpine causes ptosis 1 hour after intravenous administration; the majority of antidepressants oppose this ptosis. The following protocol was chosen. The substances to be studied were administered intraperitoneally and the reserpine was simultaneously administered intravenously at a dose of 2 mg/kg. […] This test was performed on groups of 10 mice; the results are expressed as ED50 (50% effective dose), i.e. the dose which completely blocks the ptosis induced by reserpine in 50% of the animals.

The nature of series [2]: Acute toxicity, mortality within 24 hours, intraperitoneal. The following applies: mouse, in vivo, ip, mice, dose of 300 mg/kg. The method, then:
The products to be studied were administered intraperitoneally in increasing doses to groups of 10 mice (CD1, Charles River; 20±1 g).
From the results obtained, the 50% lethal dose, i.e. the dose causing the death of 50% of the animals, was determined for each of the products studied.

In series [3] the test system is trembling induced by L-5-HTP. Kind of series: Potentiation of the trembling induced by L-5-HTP. It is filed as in vivo, female CD1 mice. Conditions: Mus musculus, ip; mice, intraperitoneal, 1 hour before L-5-HTP 200 mg/kg i.p.; observed 20 minutes; read-out: ED50 (dose which induces trembling in 50% of the animals treated). The source says:
Its injection into mice causes a behavioral syndrome characterized in particular by violent trembling. Antidepressants which inhibit the recapture of serotonin or monoamine oxidase inhibitors (MAOI) potentiate this effect of […], 1959). The protocol described by […] (Biochem. Pharmacol., 2, 290-298, 1959) was used. […] The results are expressed as ED50, i.e. the dose which induces trembling in 50% of the animals treated.

The test system of a further series is dopaminergic receptors. The experiment in a line: Rotation behavior, unilateral striatal lesion by 6-hydroxydopamine. It is filed as in vivo, female CD1 mice. Conditions: Mus musculus, ip; mice, intraperitoneal, 1 hour after administration, rotations over 2 minutes; read-out: MED (minimum dose necessary to cause a significant reduction in the number of ipsilateral rotations). The method, then: This test is the one described by PROTAIS et al. (Journal de Pharmacologie,Paris, 7, 251-255, 1976). Female mice (Charles River, CD1) weighing from 25 to 30 g were subjected beforehand to a unilateral lesion of the striatum by the stereotaxic injection of 6-hydroxydopamine at a rate of 8 μg per animal. One week after this operation, the products were administered intraperitoneally to groups of 7 mice. 1 hour after administration of the product, the number of rotations was evaluated for 2 minutes. The rotations on the same side as the lesion were counted as positive and those on the opposite side as negative. The algebraic sum of the rotations for one group of treated animals was compared with that of the group of control animals which had only received the vehicle (aqueous solution of gum). In this test, stimulants of the dopaminergic receptors (apomorphine type) reduce the spontaneous rotations whereas indirect dopaminomimetic agents (amphetamine type) increase them. The results are expressed as MED (minimum effective dose), i.e. the minimum dose necessary to cause a significant reduction (Student's t-test) in the number of ipsilateral rotations spontaneously observed in the control animals.

`CN(C)CCNc1nnc(-c2ccccc2)s1` [Compound A, reference compound]: the median effective dose (ED50) (commonly the dose that gives a 50% effect, or the effect in half of the subjects) in series [1] was determined as 32 mg/kg. For the same molecule, the mortality (as a rule, the share of the test organisms that died) at 24 h in series [2] worked out at 70%.

Consider `CCN(CC)CCNc1nnc(-c2ccccc2)s1` [Compound B, reference compound], for which the ED50 in series [1] was 43 mg/kg. In series [2], this molecule came in with a mortality at 24 h of 90%.

`C1CCC(c2nnc(NCCN3CCOCC3)s2)C1` [SR 43057 A]: the ED50 in series [1] worked out at 23 mg/kg.

Consider `C1CCC(c2nnc(NCCN3CCOCC3)s2)CC1` [SR 43058, 2-(2-Morpholinoethylamino)-5-cyclohexyl-1,3,4-thiadiazole], for which the ED50 is 22 mg/kg in series [1] and 17 mg/kg in series [3].

Regarding `COc1ccc(-c2nnc(NCCN3CCOCC3)s2)cc1` [SR 43198, 2-(2-morpholinoethylamino)-5-(4-methoxyphenyl)-1,3,4-thiadiazole], the 50% effective dose (ED50) in series [3] amounted to 7 mg/kg.

In the case of `Cl.Cl.Oc1ccc(-c2nnc(NCCN3CCOCC3)s2)cc1` [SR 43202 A, 2-(2-Morpholinoethylamino)-5-(4-hydroxyphenyl)-1,3,4-thiadiazole dihydrochloride], the minimal effective dose in the series on dopaminergic receptors was 0.1 mg/kg.

With `c1ccc(-c2ccc(-c3nnc(NCCN4CCOCC4)s3)cc2)cc1` [SR 43294], the minimal effective dose with dopaminergic receptors came to 0.1 mg/kg.

Regarding `COc1ccc(-c2nnc(NCCN3CCOCC3)s2)cc1OC` [SR 43295, 2-(2-morpholinoethylamino)-5-(3,4-dimethoxyphenyl)-1,3,4-thiadiazole], the minimal effective dose in the series on dopaminergic receptors turned out to be 0.1 mg/kg.

Regarding `Cl.Cl.Oc1ccc(-c2nnc(NCCN3CCOCC3)s2)cc1O` [SR 43296 A, 2-(2-Morpholinoethylamino)-5-(3,4-dihydroxyphenyl)-1,3,4-thiadiazole dihydrochloride], the minimal effective dose with dopaminergic receptors came out at 0.1 mg/kg.

For `O=[N+]([O-])c1ccc(-c2nnc(NCCN3CCOCC3)s2)cc1` [SR 43530], in series [3], the median effective dose (ED50) was 6.2 mg/kg. For the same molecule, the minimal effective dose in the series with dopaminergic receptors is 0.1 mg/kg.

As to `FC(F)(F)c1cccc(-c2nnc(NCCN3CCOCC3)s2)c1` [SR 43531 A], the 50% effective dose (ED50) in series [3] is 7.8 mg/kg.

For `FC(F)(F)c1ccc(-c2nnc(NCCN3CCOCC3)s2)cc1` [SR 43604], the minimal effective dose in the series with dopaminergic receptors stood at 0.1 mg/kg.

On to `Cl.Cl.c1ccc(-c2nnc(NCCN3CCOCC3)s2)cc1` [SR 95311 A, 2-(2-Morpholinoethylamino)-5-phenyl-1,3,4-thiadiazole dihydrochloride], for which the results for the median effective dose (ED50) in series [1] and in series [3] were 4.6 mg/kg and 6 mg/kg, respectively. Besides, in the series with dopaminergic receptors, the minimal effective dose came out at 0.1 mg/kg.

Consider `Clc1ccc(-c2nnc(NCCN3CCOCC3)s2)cc1` [SR 95340 A], for which the ED50 in series [1] was 8.8 mg/kg; in series [3] it was 3.6 mg/kg.

For `Clc1cccc(-c2nnc(NCCN3CCOCC3)s2)c1` [SR 95396 A], the 50% effective dose (ED50) in series [1] was found to be 11.3 mg/kg. Also, the minimal effective dose with dopaminergic receptors came to 0.1 mg/kg.

Turning to `Clc1ccccc1-c1nnc(NCCN2CCOCC2)s1` [SR 95397 A], the results for the 50% effective dose (ED50) in series [1] and in series [3] were 18 mg/kg and 14.5 mg/kg, respectively. The minimal effective dose with dopaminergic receptors stood at 0.1 mg/kg.

`c1ccc2c(-c3nnc(NCCN4CCOCC4)s3)cccc2c1` [SR 95559 A]: the minimal effective dose in the series on dopaminergic receptors stood at 0.1 mg/kg.

For the origin of these results see US4596802A, “Thiadiazole derivatives active on the central nervous system and pharmaceutical compositions” (Sanofi, priority 1984, dated 1986).
